#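 In this assay, cells in 96-well plates receive the compound at five concentrations for 48 hours. Endpoints are linearly interpolated between the surrounding concentrations. GI50 marks 50% less growth. Definition used: TGI = concentration required for complete inhibition of growth.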
# Tests used:
# Experiment in all cases: NCI tumour cell line growth inhibition, 48 h
# CAKI-1 renal = tested on: CAKI-1 renal
# HL-60(TB) leukemia = tested on: HL-60(TB) leukemia
# K-562 leukemia = tested on: K-562 leukemia
# M14 melanoma = tested on: M14 melanoma
# MALME-3M melanoma = tested on: MALME-3M melanoma
# NCI-H226 lung = tested on: NCI-H226 lung
# NCI-H460 lung = tested on: NCI-H460 lung
# SK-MEL-28 melanoma = tested on: SK-MEL-28 melanoma
# SN12C renal = tested on: SN12C renal
# UACC-257 melanoma = tested on: UACC-257 melanoma
SMILES,GI50 (CAKI-1 renal),TGI (CAKI-1 renal),GI50 (HL-60(TB) leukemia),TGI (HL-60(TB) leukemia),GI50 (K-562 leukemia),TGI (K-562 leukemia),GI50 (M14 melanoma),TGI (M14 melanoma),GI50 (MALME-3M melanoma),TGI (MALME-3M melanoma),GI50 (NCI-H226 lung),TGI (NCI-H226 lung),GI50 (NCI-H460 lung),TGI (NCI-H460 lung),GI50 (SK-MEL-28 melanoma),TGI (SK-MEL-28 melanoma),GI50 (SN12C renal),TGI (SN12C renal),GI50 (UACC-257 melanoma),TGI (UACC-257 melanoma)
C=C(C)C1CCC2(C(=O)O)CCC3(C)C(CCC4C5(C)CCC(OC(=O)NCc6ccccc6)C(C)(C)C5CCC43C)C12 (configuration not stated),1.63 µM,15.7 µM,2.39 µM,28.1 µM,1.67 µM,> 100 µM,5.98 µM,> 100 µM,5.5 µM,54.1 µM,6.69 µM,> 100 µM,3.14 µM,16.5 µM,1.08 µM,> 100 µM,7.11 µM,> 100 µM,2.3 µM,> 100 µM
CCOC(=O)c1c(C)nc2c(c1N)/C(=C/c1ccc(OC)cc1)C(=O)N2Cc1ccc(F)cc1,0.25 µM,1.31 µM,0.14 µM,0.474 µM,0.207 µM,1.01 µM,0.191 µM,0.443 µM,0.185 µM,0.44 µM,0.261 µM,1.03 µM,0.257 µM,0.744 µM,0.183 µM,0.374 µM,0.244 µM,0.75 µM,,
COC(C(O)c1ccc2c(c1)OCO2)P(=O)(c1ccccc1)c1ccccc1 (configuration not stated),,> 100 µM,,> 100 µM,,> 100 µM,,> 100 µM,,> 100 µM,,> 100 µM,,> 100 µM,,> 100 µM,,> 100 µM,,> 100 µM
O=C(/C=C\n1cnc(-c2cc(C(F)(F)F)cc(C(F)(F)F)c2)n1)NNc1cnccn1,0.0414 µM,12 µM,0.0467 µM,,0.0594 µM,> 38.3 µM,0.311 µM,9.04 µM,0.135 µM,10.5 µM,0.0384 µM,3.05 µM,0.037 µM,3.14 µM,0.0672 µM,11 µM,0.356 µM,15.4 µM,0.188 µM,16.6 µM
CS(=O)(=O)c1cc(=O)c2ccccc2s1,,4.49 µM,,6.45 µM,,3 µM,,3.44 µM,,3.5 µM,,20.3 µM,,41.2 µM,,7.5 µM,,22.2 µM,,7.92 µM
COc1cc2c(c(OC)c1)C1(CC(CC#N)C2)SCCS1 (configuration not stated),,> 100 µM,,> 100 µM,,> 100 µM,,> 100 µM,,> 100 µM,,> 100 µM,,> 100 µM,,> 100 µM,,> 100 µM,,> 100 µM
C/C(=N\Nc1ccc(Cl)cn1)c1ccccn1,0.0452 µM,2.64 µM,0.0359 µM,1.08 µM,0.029 µM,> 100 µM,,,0.111 µM,44.1 µM,0.0939 µM,2.65 µM,0.268 µM,11.2 µM,0.25 µM,> 100 µM,0.134 µM,> 100 µM,0.117 µM,
Fc1ccc(C2SCc3nc4ccccc4n32)cc1Cl (configuration not stated),,38.4 µM,,47.6 µM,,55.9 µM,,,,31 µM,,52 µM,,> 100 µM,,61.2 µM,,35.7 µM,,56.7 µM
COc1ccc(/C=C\c2cc(OC)c(OC)c(OC)c2)cc1OC(=O)NCCN(C)C,,> 100 µM,,0.00338 µM,,23.7 µM,,> 35 µM,,98.3 µM,,0.0464 µM,,0.00485 µM,< 0.0001 µM,43.1 µM,,,,

# Source: PubChem BioAssay (NCI)
